Consider 1 compound from patent US20220105029A1, “BIODEGRADABLE CHITOSAN MICRONEEDLE PATCH FOR TRANSDERMAL DELIVERY FOR LIVESTOCK PAIN MANAGEMENT” (THE BOARD OF TRUSTEES OF THE UNIVERSITY OF ARKANSAS, priority 2020, published 2022).

Data set [1] in a line: Solubility of meloxicam in solvents. The data set is classed as physicochemical.
For data set [2] the following is noted: cited from earlier work.

Molecules are shown by their SMILES.

As to `Cc1cnc(NC(=O)C2=C(O)c3ccccc3S(=O)(=O)N2C)s1` [meloxicam], the “solubility in acetic acid” value in data set [1] is “not soluble”. In addition, in data set [2], the solubility in acids entry was “not dissolving in acids” and the “solubility in dimethyl sulfoxide (DMSO)” value is recorded as “dissolves completely”.
